Experimental data as given in publication PMC7614683, “A small molecule PI3Kα activator for cardioprotection and neuroregeneration” (Nature, 2023).
“And” between values parts separate entries of the source, which are not always exact repeats. Equal values may be shown once.

What was measured:
rat sciatic nerve = assay: Rat sciatic nerve crush injury model; assay type: in vivo; conditions: 21 days, single animals
Source text: We used the rat sciatic nerve crush model of peripheral nerve injury and regeneration[82]–[84]. Adult female Sprague Dawley rats (230-280 g, n=10, Charles River, UK) were anaesthetised by isoflurane inhalation in an induction chamber (5% isoflurane in O2, 0.8 l/min). Anaesthesia was maintained with 1.5-2.5% isoflurane inhalation, and the left sciatic nerve exposed at mid-thigh level.
The nerve was crushed by application of constant pressure using fully closed sterile type 4 tweezers (TAAB) for 15 sec. This was repeated two more times at the same point, with 45° rotation between each crush. The injury site was marked with a 10/0 epineurial non-absorbant suture (Ethicon). Following injury, a single 2 μl injection of 1938 solution (5 μM in sterile H2O) or vehicle (sterile dH2O) was administered proximal to the crush site with a 10 μl Hamilton syringe. An osmotic minipump (Alzet 1004, Charles River, UK) was also implanted between the muscle layers, adjacent to the nerve oriented with the outlet nearest to the crush site, loaded with 1938 solution (100 μM in sterile H2O) or vehicle (sterile H2O). Animals were randomly assigned to groups (n=5 per group) and one experimenter was kept blind to condition for conducting functional and histological analyses. Overlying muscle layers were closed using 4/0 sutures (Ethicon) and the skin was closed with wound clips (Clay Adams). Animals were left to recover for 21 days.
At the end-point of the experiment (21 days), rats were anaesthetised and the sciatic nerve exposed as described above. A reference, ground (Natus) and recording electrode (Ambu Neuroline) were attached above the hip bone, into the tail, and into the tibialis anterior muscle respectively. A microchannel neurointerface (MNI) was placed approximately 2 mm proximal to the injury site and used to stimulate the nerve. The MNI was manufactured using a previously documented protocol. Electrode impedance of the MNI was 27.1 ±19.8 kΩ at 1k Hz. Compound muscle action potential (CMAP) was obtained by sciatic nerve stimulation with square wave pulses of 100 μsec with intensity from 1-10 mA. Stimulus was increased in 0.2 mA steps until muscle response amplitude no longer increased. CMAP amplitude was measured from peak to peak and recorded in triplicate for both the ipsilateral and contralateral side. The CMAP with the largest amplitude was selected for analysis.
A modified multipoint stimulation technique was used to calculate Motor Unit Number Estimation (MUNE)[86]–[88]. Incremental responses were obtained by delivering a submaximal stimulation of 100 μsec duration at a frequency of 1Hz while increasing the stimulus intensity in increments of 0.02 mA to obtain minimal responses. The initial response was obtained with a stimulus intensity of between 0.21 mA and 0.70 mA. […] Additional Single Motor Unit Potentials (SMUPs) were evoked by stimulation in increments of 0.02 mA to obtain a minimum of four additional increments. The position of the stimulating electrode and the location of the recording electrode was changed to allow the recording of SMUPs from a different site of the muscle. This process was repeated at least three times. The CMAP was divided by the mean magnitude of SMUPs to quantify MUNE.
After electrophysiology recordings, animals were culled with sodium pentobarbital injection according to local regulations. Sciatic nerves, including the common peroneal branch, and tibialis anterior muscles were collected and placed in 4% paraformaldehyde (PFA). Nerve samples were fixed overnight in 4% PFA at 4°C before transferring to PBS. Nerve samples were divided into sciatic nerves including the crush site, and the common peroneal branch for sectioning. Nerve samples were immersed in 30% sucrose overnight at 4°C, then snap frozen in Neg-50 frozen section medium (Thermo Scientific) using liquid nitrogen cooled isopentane. […]

full length p110α/p85α = molecular target: T1, full length p110α/p85α (Homo sapiens, UniProt P42336); assay: Differential scanning fluorimetry; assay type: binding; conditions: mean ± SD, n=3; read-out: Kd for PI3Kα by differential scanning fluorimetry
T1 construct: Full-length human p110α was expressed either in a complex with full-length human p85α (for HTS, biochemistry and HDX-MS); 6xHis tag followed by TEV protease site (N); host or cells: Spodoptera frugiperda Sf9, baculovirus
Protocol: Thermal denaturation was followed using intrinsic protein fluorescence measured with the NanoTemper Prometheus NT48 instrument (Nanotemper Technologies, München, Germany). Samples in HBS-P (Cytiva) supplemented with 5% (v/v) DMSO containing 3 μM full length p110α/p85α and a 1:2 dilution series of 1938 (from 440 μM to 13.8 nM) were loaded into standard capillaries and heated at 2 °C/min from 15 to 95 °C. The first derivative of the fluorescence emission ratio 350/330 nm were analyzed using the PR.ThermControl v2.3.1 (NanoTemper), to define the Tm. Independent experiments using the same protein and compound stocks were performed in triplicate. Data were fitted using Prism 9.4.1 (GraphPad Software Inc). Dissociation constants were calculated using fits to a single-site ligand depletion model: (2) T=T0+(T1−T0){([CT]+[PT]+[KD])−([CT]+[PT]+KD)^2−4[CT][PT]}/2[PT] where T0 and T1 are the Tm in the absence of titrating compound and at saturation respectively, [PT] and [CT] are the total concentrations of protein and compound respectively and KD is the dissociation constant.

[1] = sciatic nerve 3 mm distal to injury
[2] = sciatic nerve 6 mm distal to injury

T1 sequence (P42336 whole entry): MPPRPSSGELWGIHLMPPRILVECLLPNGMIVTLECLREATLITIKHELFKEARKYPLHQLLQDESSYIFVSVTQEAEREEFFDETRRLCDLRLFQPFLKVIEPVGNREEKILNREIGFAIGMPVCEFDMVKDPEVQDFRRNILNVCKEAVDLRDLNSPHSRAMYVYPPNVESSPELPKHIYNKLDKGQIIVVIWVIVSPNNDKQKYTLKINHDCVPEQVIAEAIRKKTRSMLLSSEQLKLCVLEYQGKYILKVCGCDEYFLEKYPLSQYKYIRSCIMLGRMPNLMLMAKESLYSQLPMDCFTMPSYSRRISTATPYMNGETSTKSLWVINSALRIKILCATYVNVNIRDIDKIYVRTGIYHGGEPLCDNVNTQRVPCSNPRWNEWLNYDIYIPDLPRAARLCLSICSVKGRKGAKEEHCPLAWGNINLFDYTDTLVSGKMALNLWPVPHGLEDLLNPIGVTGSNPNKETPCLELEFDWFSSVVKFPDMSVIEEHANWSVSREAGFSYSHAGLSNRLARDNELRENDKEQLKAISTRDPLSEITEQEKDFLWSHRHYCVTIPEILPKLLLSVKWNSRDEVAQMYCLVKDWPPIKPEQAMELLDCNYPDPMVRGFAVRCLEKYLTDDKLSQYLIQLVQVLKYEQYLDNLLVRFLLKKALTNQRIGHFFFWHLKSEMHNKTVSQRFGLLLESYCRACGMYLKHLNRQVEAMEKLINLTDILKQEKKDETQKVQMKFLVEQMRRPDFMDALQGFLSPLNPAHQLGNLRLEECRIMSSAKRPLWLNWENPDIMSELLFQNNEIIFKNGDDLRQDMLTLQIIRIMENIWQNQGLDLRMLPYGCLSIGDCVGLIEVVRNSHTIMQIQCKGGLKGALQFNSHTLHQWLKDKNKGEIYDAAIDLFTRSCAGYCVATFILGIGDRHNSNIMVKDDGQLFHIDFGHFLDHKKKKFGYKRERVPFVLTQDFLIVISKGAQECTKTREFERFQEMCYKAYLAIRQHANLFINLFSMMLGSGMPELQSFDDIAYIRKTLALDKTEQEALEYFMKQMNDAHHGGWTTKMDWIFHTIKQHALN
T1 sequence (P27986 whole entry partner): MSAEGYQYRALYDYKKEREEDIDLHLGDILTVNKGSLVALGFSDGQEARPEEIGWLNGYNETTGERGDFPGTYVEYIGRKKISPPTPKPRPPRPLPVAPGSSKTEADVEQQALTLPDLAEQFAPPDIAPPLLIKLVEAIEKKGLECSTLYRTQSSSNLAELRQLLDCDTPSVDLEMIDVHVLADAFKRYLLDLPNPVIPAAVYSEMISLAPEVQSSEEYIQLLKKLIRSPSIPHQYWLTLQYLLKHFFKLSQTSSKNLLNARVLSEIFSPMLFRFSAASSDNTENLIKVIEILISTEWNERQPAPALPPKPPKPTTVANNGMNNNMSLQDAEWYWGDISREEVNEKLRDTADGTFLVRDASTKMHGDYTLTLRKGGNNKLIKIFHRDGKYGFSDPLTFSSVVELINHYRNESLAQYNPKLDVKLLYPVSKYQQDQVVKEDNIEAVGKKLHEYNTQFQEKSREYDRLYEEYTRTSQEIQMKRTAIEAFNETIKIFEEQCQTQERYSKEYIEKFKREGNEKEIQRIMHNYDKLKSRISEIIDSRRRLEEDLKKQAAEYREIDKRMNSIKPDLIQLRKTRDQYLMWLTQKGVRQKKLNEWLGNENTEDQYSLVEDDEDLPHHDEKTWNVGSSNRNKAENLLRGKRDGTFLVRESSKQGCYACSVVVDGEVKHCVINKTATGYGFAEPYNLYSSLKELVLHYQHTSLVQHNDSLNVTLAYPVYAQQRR

CCN1CCN(c2ccc(Nc3cc(Nc4cccc5c4N(C(C)=O)CC5)ccn3)cc2)CC1 [Compound 1938]
Nerve Branch ChAT (ChAT-positive motor axons, distal common peroneal nerve) (rat sciatic nerve): increase in 1938-treated animals in the number of choline acetyltransferase (ChAT)-positive motor axons and 34 and 72 and 42 and 49 and 62 | Axons, ChAT (rat sciatic nerve; [1]): 1228 and 1010 and 1060 and 720 and 1883 | Axons, Neurofilament (rat sciatic nerve; [1]): 7100 and 6477 and 6615 and 8292 and 8493 | Axons, ChAT (rat sciatic nerve; [2]): 922 and 986 and 763 and 966 and 1022 | Axons, Neurofilament (rat sciatic nerve; [2]): 5299 and 5863 and 4746 and 5437 and 5016 | CMAP Recovery (rat sciatic nerve; tibialis anterior muscle): greater compound muscle action potential (CMAP) recovery and 16.9542 % contralateral and 21.941 % contralateral and 17.4705 % contralateral and 17.5154 % contralateral and 28.7184 % contralateral | MUNE Recovery (rat sciatic nerve; tibialis anterior muscle): increased motor unit number estimation and 60.8971 % contralateral and 47.6617 % contralateral and 40.6292 % contralateral and 44.6256 % contralateral and 48.3614 % contralateral | NMJ (rat sciatic nerve; tibialis anterior muscle): 17 % reinnervation and 31 % reinnervation and 16 % reinnervation and 23 % reinnervation and 26 % reinnervation | Kd (full length p110α/p85α): 16 ± 2 µM
